Test results published in patent US20260365664A1, “HARRINGTONINE DERIVATIVE, PHARMACEUTICAL COMPOSITION THEREOF, PREPARATION METHOD THEREFOR, AND USE THEREOF” (NANKAI UNIVERSITY, priority 2022, published 2026).

Experiments:
Assay type in all cases: cell-based
[1] = system: human breast cancer cell MCF-7; test: MTT in vitro cell growth inhibition, human breast cancer cell MCF-7 (48 h); conditions: MCF7, MCF-7 cells
Method: (§1) Human breast cancer cell MCF-7, hepatocellular carcinoma cell HepG2, lung adenocarcinoma cell A549 were purchased from Shanghai Cell Bank of Chinese Academy of Sciences. Human leukemia cells HL-60, human leukemia cells adriamycin-resistant strain HL-60/ADR, and human glioblastoma cells U-87MG were purchased from Shanghai Chuanqiu Biotechnology Co. Human cervical cancer HeLa was purchased from Shanghai Jikai Gene Chemistry Technology Co. Human colon cancer cells HCT-116, human brain microvascular endothelial cells hCMEC/D3 were preserved by Tianjin Suntech Pharmaceutical Technology Co. Human colon cancer cells Sw620 and human colon cancer cells LoVo were provided by Tianjin Medical University Hospital.
(§2) Human breast cancer cell MCF-7, hepatocellular carcinoma cell HepG2, lung adenocarcinoma cell A549, human leukemia cell HL-60, human leukemia cell adriamycin-resistant strain HL-60/ADR, human glioblastoma cell U-87MG, human cervical carcinoma cell HeLa, human colon carcinoma cell HCT-116, human colon carcinoma cell Sw620, human colon carcinoma cell LoVo, Human brain microvascular endothelial cells HCMEC/D3 were cultured using DMEM medium. The medium was supplemented with 10% fetal bovine serum and 1% double antibody (penicillin+streptomycin), and the culture environment was an incubator filled with 5% CO2 at a temperature of 37 °C, when the cells basically grew all over the bottom of the dish (about 80%-90%), passaging culture was performed.
(§3) Preparation of MTT solution: Weigh 50 mg of MTT, dissolve it in 10 mL of phosphate buffer solution (PBS), dispense it, and store it at 4 °C away from light, it will be effective within two weeks.
(§4) Take the series of compounds diluted with medium to form 1 mg/ml master batch, before use, precise aspiration of the appropriate amount of sample master batch diluted with medium to form working solutions with different concentration gradients, such as 100 μg/ml, 10 μg/ml, 1 μg/ml, 0.1 μg/ml, 0.01 μg/ml, 0.001 μg/ml and so on.
(§5) 1. Take log phase cells, digest, centrifuge and resuspend. The cell density was adjusted to 1×10^5 cells/mL by adding culture medium, and 100 μl of prepared cell suspension per well was added and inoculated into 96-well cell culture plates, after which they were placed in a cell culture incubator for incubation.
(§6) 2. After 24 h of culture, the test group was added 2 μl of the series of compounds with concentrations of 100 μg/ml, 10 μg/ml, 1 μg/ml, 0.1 μg/ml, 0.01 μg/ml, 0.001 μg/ml, and 4 replicate wells were set up for each concentration, as well as a positive control group (etoposide) and a blank control group.
(§7) 3. The 96-well plates were incubated separately for 48 h and then 20 μl of MTT solution (concentration of 5 mg/ml) was added to each well and incubation was continued for 4 hours in the incubator.
(§8) 4. Remove the 96-well plate from the incubator, carefully aspirate the medium in the wells with a micropipette, and add 150 μl of dimethyl sulfoxide to each well, shake to dissolve the crystals completely, and then measure the absorbance OD value using an enzyme counter at 492 nm.
(§9) 5. The test was repeated three times consecutively and the cell inhibition rate was calculated according to the following formula: cell inhibition rate (%)=[1−OD value of the test group/OD of the blank control group)]×100%, and the IC50 value of the half inhibitory concentration of the samples for inhibiting cell growth was calculated.

[2] = system: hepatocellular carcinoma cell HepG2; test: MTT in vitro cell growth inhibition, hepatocellular carcinoma cell HepG2 (48 h); conditions: Homo sapiens, HepG2 cells
Method: as §1, §2, §3, §4, §5, §6, §7, §8, §9

[3] = system: human colon cancer cells LoVo; test: MTT in vitro cell growth inhibition, human colon cancer cells LoVo (48 h)
Method: as §1, §2
(§10) Preparation of MTT solution: Weigh 50 mg of MTT, dissolve it in 10 mL of phosphate buffer solution (PBS), dispense it, and store it at 4 °C away from light, it will be effective within two weeks. […]
(§11) 4. Remove the 96-well plate from the incubator, carefully aspirate the medium in the wells with a micropipette, and add 150 μl of dimethyl sulfoxide to each well, shake to dissolve the crystals completely, and then measure the absorbance OD value using an enzyme counter at 492 nm. […]

[4] = system: human leukemia cells HL-60; test: MTT in vitro cell growth inhibition, human leukemia cells HL-60 (48 h); conditions: HL-60 cells
Method: as §1, §2, §3, §4, §5, §6, §7, §8, §9

[5] = system: human colon cancer cells Sw620; test: MTT in vitro cell growth inhibition, human colon cancer cells Sw620 (48 h); conditions: SW-620
Method: as §1, §2, §10, §11

[6] = system: lung adenocarcinoma cell A549; test: MTT in vitro cell growth inhibition, lung adenocarcinoma cell A549 (48 h); conditions: Homo sapiens, A549 cells
Method: as §1, §2, §3, §4, §5, §6, §7, §8, §9

[7] = system: human cervical cancer HeLa; test: MTT in vitro cell growth inhibition, human cervical cancer HeLa (48 h); conditions: HeLa cells
Method: as §1, §2, §10, §11

[8] = system: human colon cancer cells HCT-116; test: MTT in vitro cell growth inhibition, human colon cancer cells HCT-116 (48 h); conditions: HCT116 cells
Method: as §1, §2, §3, §4, §5, §6, §7, §8, §9

[9] = system: human brain microvascular endothelial cells hCMEC/D3; test: MTT in vitro cell growth inhibition, human brain microvascular endothelial cells hCMEC/D3 (48 h)
Method: as §1, §2, §3, §4, §5
2. […]
as §11

SMILES	IC50 [1]	IC50 [2]	IC50 [4]	IC50 [6]	also measured
COC(=O)C[C@](O)(CCc1cccc(NC(=O)Nc2ccc(C)cc2)c1)C(=O)O[C@@H]1C(OC)=C[C@]23CCCN2CCc2cc4c(cc2[C@H]13)OCO4 [Compound I-1-1]	4.3 nM	25 nM			
COC(=O)C[C@](O)(CCc1cccc(NC(=O)NC2CCCC2)c1)C(=O)O[C@@H]1C(OC)=C[C@]23CCCN2CCc2cc4c(cc2C13)OCO4 (stereo partly drawn) [Compound I-1-2]	0.5 nM	14 nM	7.7 nM	70 nM	IC50 [3]: 57 nM; IC50 [5]: 12 nM
COC(=O)C[C@](O)(CCc1cccc(NC(=O)NC2CCCCC2)c1)C(=O)O[C@@H]1C(OC)=C[C@]23CCCN2CCc2cc4c(cc2C13)OCO4 (stereo partly drawn) [Compound I-1-9]			8.9 nM		
COC(=O)C[C@](O)(CCc1cccc(NC(=O)Nc2ccc(OC)cc2)c1)C(=O)O[C@@H]1C(OC)=C[C@]23CCCN2CCc2cc4c(cc2C13)OCO4 (stereo partly drawn) [Compound I-1-22]			13.5 nM		
COC(=O)C[C@@](O)(CCc1cccc([N+](=O)[O-])c1)C(=O)O[C@@H]1C(OC)=C[C@]23CCCN2CCc2cc4c(cc2C13)OCO4 (stereo partly drawn) [Compound I-2-2]	14 nM	29 nM			
COC(=O)C[C@](O)(CCc1cccc(N)c1)C(=O)O[C@@H]1C(OC)=C[C@]23CCCN2CCc2cc4c(cc2[C@H]13)OCO4 [Compound I-2-5]	11 nM	40 nM	3.1 nM		
COC(=O)C[C@](O)(CCc1cccc(NC(C)=O)c1)C(=O)O[C@@H]1C(OC)=C[C@]23CCCN2CCc2cc4c(cc2[C@H]13)OCO4 [Compound I-2-9]	34 nM	48 nM	3.3 nM		
COC(=O)C[C@](O)(CCCC(F)(F)F)C(=O)O[C@@H]1C(OC)=C[C@]23CCCN2CCc2cc4c(cc2[C@H]13)OCO4 [Compound I-2-29]				61 nM	IC50 [7]: 25 nM
COC(=O)C[C@](O)(CCC(F)(F)C(F)(F)F)C(=O)O[C@@H]1C(OC)=C[C@]23CCCN2CCc2cc4c(cc2[C@H]13)OCO4 [Compound I-2-30]				21 nM	IC50 [7]: 28 nM
COC(=O)C[C@](O)(CCc1cccc(F)c1F)C(=O)O[C@@H]1C(OC)=C[C@]23CCCN2CCc2cc4c(cc2[C@H]13)OCO4 [Compound I-2-35]	110 nM	23 nM		60 nM	
COC(=O)C[C@](O)(CCc1ccccc1C(F)(F)F)C(=O)O[C@@H]1C(OC)=C[C@]23CCCN2CCc2cc4c(cc2[C@H]13)OCO4 [Compound I-2-38]	220 nM	75 nM		290 nM	
COC(=O)C[C@](O)(CCc1ccc(SC)cc1)C(=O)O[C@@H]1C(OC)=C[C@]23CCCN2CCc2cc4c(cc2[C@H]13)OCO4 [Compound I-2-41]	60 nM	10 nM		150 nM	
COC(=O)C[C@](O)(CCc1cccc2ccccc12)C(=O)O[C@@H]1C(OC)=C[C@]23CCCN2CCc2cc4c(cc2[C@H]13)OCO4 [Compound I-2-43]		15 nM			
COC(=O)C[C@](O)(CCc1ccc2ccccc2c1)C(=O)O[C@@H]1C(OC)=C[C@]23CCCN2CCc2cc4c(cc2[C@H]13)OCO4 [Compound I-2-44]	65 nM	95 nM	8.7 nM	20 nM	
COC(=O)C[C@](O)(CCc1ccc(OC)cc1)C(=O)O[C@@H]1C(OC)=C[C@]23CCCN2CCc2cc4c(cc2[C@H]13)OCO4 [Compound I-2-45]	90 nM	17 nM		210 nM	
COC1=C[C@]23CCCN2CCc2cc4c(cc2[C@@H]3[C@@H]1OC(=O)C(O)(CCC(C)C)CC(=O)SC)OCO4 (stereo partly drawn) [Compound I-2-52]					IC50 [8]: 46 nM
COC1=C[C@]23CCCN2CCc2cc4c(cc2[C@@H]3[C@@H]1OC(=O)C(O)(C/C=N\OC(C)=O)CCC(C)C)OCO4 (stereo partly drawn) [Compound I-3-13]			18 nM	45 nM	IC50 [8]: 16 nM
CCCCC(O)(C/C=N\OC(C)=O)C(=O)O[C@@H]1C(OC)=C[C@]23CCCN2CCc2cc4c(cc2[C@H]13)OCO4 (stereo partly drawn) [Compound I-3-14]				44 nM	IC50 [8]: 69 nM
COC1=C[C@]23CCCN2CCc2cc4c(cc2[C@@H]3[C@@H]1OC(=O)C(O)(C/C=N/OC(C)=O)CCC=C(C)C)OCO4 (stereo partly drawn) [Compound I-3-15]				83 nM	
C=CC(=O)O/N=C/CC(O)(CCC(C)C)C(=O)O[C@@H]1C(OC)=C[C@]23CCCN2CCc2cc4c(cc2[C@H]13)OCO4 (stereo partly drawn) [Compound I-3-22]				39 nM	IC50 [8]: 48 nM
COC1=C[C@]23CCCN2CCc2cc4c(cc2[C@@H]3[C@@H]1OC(=O)C(O)(C/C=N\OC(=O)C(C)C)CCC(C)C)OCO4 (stereo partly drawn) [Compound I-3-23]			34 nM	21 nM	IC50 [8]: 71 nM
CCCCC(O)(C/C=N\OC(=O)C(C)C)C(=O)O[C@@H]1C(OC)=C[C@]23CCCN2CCc2cc4c(cc2[C@H]13)OCO4 (stereo partly drawn) [Compound I-3-24]			67 nM	36 nM	IC50 [9]: 245 nM; IC50 [8]: 24 nM
COC1=C[C@]23CCCN2CCc2cc4c(cc2[C@@H]3[C@@H]1OC(=O)C(O)(C/C=N\OC(=O)C(C)C)CCC=C(C)C)OCO4 (stereo partly drawn) [Compound I-3-25]				92 nM	
COC1=C[C@]23CCCN2CCc2cc4c(cc2[C@@H]3[C@@H]1OC(=O)C(O)(C/C=N/OC(=O)[C@H](C)c1ccc2cc(OC)ccc2c1)CCC(C)C)OCO4 (stereo partly drawn) [Compound I-3-31]			20 nM	21 nM	IC50 [3]: 45 nM; IC50 [9]: 24 nM; IC50 [5]: 3.4 nM
COC1=C[C@]23CCCN2CCc2cc4c(cc2[C@@H]3[C@@H]1OC(=O)C(O)(C/C=N/OC(=O)[C@H](C)c1ccc2cc(OC)ccc2c1)CCc1ccc2c(c1)CCO2)OCO4 (stereo partly drawn) [Compound I-3-34]				283 nM	IC50 [8]: 26 nM
COC1=C[C@]23CCCN2CCc2cc4c(cc2[C@@H]3[C@@H]1OC(=O)C(O)(C/C=N/OC(=O)NC1CCCC1)CCC(C)C)OCO4 (stereo partly drawn) [Compound I-3-46]			42 nM	53 nM	IC50 [9]: 60 nM
COC(=O)C[C@](O)(CCCC(C)(C)O)C(=O)O[C@@H]1C(OC)=C[C@]23CCCN2CCc2cc4c(cc2[C@H]13)OCO4 [HHT, homoharringtonine, reference compound]	40 nM	22 nM	40 nM	190 nM	IC50 [3]: 335 nM; IC50 [9]: 171 nM; IC50 [5]: 35 nM; IC50 [7]: 34 nM; IC50 [8]: 26 nM
